Assays:
Test in all cases: relative viability (nuclei count vs DMSO), 5 days (fraction); higher = more cells survive
IPA-3 = compound: C1=CC=C2C(=C1)C=CC(=C2SSC3=C(C=CC4=CC=CC=C43)O)O [IPA-3]
Method in brief: (§1)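 Five library-drug doses spaced by √10 were pinned onto vehicle-anchored 1536-well plates of lung cancer cell lines that had been kept overnight at 37 °C. Cells went 5 days without medium change, then were fixed, permeabilised and Hoechst-stained together, imaged at 4× and counted by MetaXpress. Viability is the ratio of treated-well to vehicle-well nuclei, taken as a median over plates. Plates required control CV below 25% and at least one doubling.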

Doramapimod = compound: Cc1ccc(-n2nc(C(C)(C)C)cc2NC(=O)Nc2ccc(OCCN3CCOCC3)c3ccccc23)cc1 [Doramapimod]
Method in brief: as §1

RAF265 = compound: Cn1c(Nc2ccc(C(F)(F)F)cc2)nc2cc(Oc3ccnc(-c4ncc(C(F)(F)F)[nH]4)c3)ccc21 [RAF265]
Method in brief: as §1

IPA-3 + Alpelisib = compound: C1=CC=C2C(=C1)C=CC(=C2SSC3=C(C=CC4=CC=CC=C43)O)O [IPA-3] + Cc1nc(NC(=O)N2CCC[C@H]2C(N)=O)sc1-c1ccnc(C(C)(C)C(F)(F)F)c1 [Alpelisib] (partner 2 µM)
Method in brief: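 A single step with final 0.05% Triton X-100, 1% formaldehyde and 1 ug/ml Hoechst fixed the cells and stained nuclei 5 days after treatment. Lung cancer cell lines in 1536-well plates had been treated by pin tool the day after seeding with one drug alone or a fixed anchor-drug dose plus five library-drug doses (not always all listed) in √10 steps, and nuclei were counted on 4× images. Relative viability is the ratio of nuclei in treated wells to nuclei in vehicle wells, taken as the median of duplicate plates.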

Cell Line | relative viability (IPA-3; 0.2 µM) | relative viability (IPA-3; 0.6325 µM) | relative viability (IPA-3; 2 µM) | relative viability (IPA-3; 6.325 µM) | relative viability (IPA-3; 20 µM) | relative viability (Doramapimod; 0.02 µM) | relative viability (Doramapimod; 0.06325 µM) | relative viability (Doramapimod; 0.2 µM) | relative viability (Doramapimod; 0.6325 µM) | relative viability (Doramapimod; 2 µM) | relative viability (RAF265; 0.01 µM) | relative viability (RAF265; 0.03162 µM) | relative viability (RAF265; 0.1 µM) | relative viability (RAF265; 0.3162 µM) | relative viability (RAF265; 1 µM) | relative viability (IPA-3 + Alpelisib; first compound 0.2 µM) | relative viability (IPA-3 + Alpelisib; first compound 0.6325 µM) | relative viability (IPA-3 + Alpelisib; first compound 2 µM) | relative viability (IPA-3 + Alpelisib; first compound 6.325 µM) | relative viability (IPA-3 + Alpelisib; first compound 20 µM)
HOP-62 | 1.08 | 0.925 | 0.986 | 1 | 1.09 | 1.02 | 1.06 | 1.08 | 0.931 | 0.975 | 1.12 | 0.989 | 0.952 | 1 | 0.834 | 1.08 | 0.926 | 0.952 | 0.945 | 0.93
Calu-6 | 1.1 | 0.971 | 0.984 | 0.998 | 1.04 | 0.995 | 0.979 | 1.04 | 1.09 | 1.01 | 0.97 | 0.842 | 0.791 | 0.505 | 0.347 | 1.08 | 1.01 | 1.01 | 0.928 | 0.924
NCI-H3122 | 1.02 | 0.98 | 0.981 | 1.04 | 0.999 | 0.995 | 1 | 0.995 | 0.989 | 1 | 1.02 | 1.1 | 1.05 | 0.885 | 0.943 | 0.797 | 0.798 | 0.804 | 0.856 | 0.776
NCI-H1395 | 1.04 | 0.947 | 0.879 | 0.918 | 1.04 | 1.01 | 1.18 | 1.07 | 0.94 | 0.831 | 1.03 | 0.866 | 0.899 | 0.774 | 0.689 | 1.06 | 1.29 | 1.04 | 1.26 | 1.01
NCI-H647 | 1.27 | 0.906 | 0.88 | 0.758 | 0.568 | 1.05 | 1.03 | 1.07 | 0.995 | 0.913 | 0.931 | 0.974 | 0.886 | 0.645 | 0.505 | 1.49 | 1.06 | 1.18 | 0.537 | 0.11
NCI-H650 | 1.2 | 0.977 | 0.861 | 1.03 | 1.12 | 0.965 | 1.02 | 1.11 | 0.901 | 0.913 | 1.07 | 0.845 | 0.969 | 0.615 | 0.51 | 1.43 | 1.11 | 1.18 | 1.04 | 1.55
NCI-H1703 | 1.27 | 0.86 | 1.02 | 0.935 | 1.04 | 0.923 | 0.918 | 0.876 | 1.11 | 0.612 | 0.783 | 0.792 | 0.831 | 0.652 | 0.352 | 0.362 | 0.289 | 0.304 | 0.301 | 0.397
EKVX | 1.08 | 0.994 | 1.05 | 1.01 | 1.32 | 0.971 | 0.968 | 0.876 | 1 | 0.952 | 1.11 | 0.988 | 1.09 | 0.573 | 0.796 | 0.923 | 0.859 | 0.941 | 0.941 | 1.27
EBC-1 | 1.29 | 0.984 | 1.01 | 0.963 | 0.933 | 0.949 | 0.987 | 0.991 | 1.03 | 0.838 | 1.05 | 0.966 | 0.939 | 0.794 | 0.611 | 0.992 | 0.73 | 0.821 | 0.811 | 0.475
NCI-H460 | 1.2 | 0.967 | 0.921 | 0.945 | 0.993 | 0.994 | 0.999 | 1.04 | 1.05 | 0.972 | 1.02 | 0.968 | 1.09 | 0.971 | 0.965 | 0.711 | 0.409 | 0.46 | 0.479 | 0.426
LCLC-97TM1 | 1.04 | 0.868 | 0.851 | 0.908 | 0.981 | 0.916 | 1.04 | 0.961 | 0.811 | 0.86 | 1.04 | 0.899 | 0.531 | 0.637 | 0.418 | 0.281 | 0.299 | 0.241 | 0.232 | 0.246
COR-L23 | 1.15 | 0.912 | 1.11 | 0.923 | 0.982 | 1.01 | 1.08 | 0.981 | 0.964 | 0.949 | 1.19 | 0.92 | 0.879 | 0.74 | 0.626 | 0.872 | 0.769 | 0.861 | 0.589 | 0.587
NCI-H1355 | 1.11 | 0.98 | 0.988 | 0.965 | 0.98 | 1.02 | 0.984 | 0.939 | 1.03 | 0.86 | 1 | 0.943 | 0.895 | 0.72 | 0.441 | 0.918 | 0.782 | 0.809 | 0.797 | 0.802
NCI-H1666 | 1.15 | 0.978 | 1.02 | 1.08 | 1.12 | 1.06 | 1.03 | 1 | 1.11 | 1.01 | 1.07 | 1.01 | 1.01 | 1.01 | 0.795 | 1.09 | 0.978 | 1 | 1.12 | 0.844
EPLC-272H | 1.04 | 0.96 | 1 | 0.905 | 1.1 | 0.929 | 0.899 | 1.01 | 0.7 | 0.837 | 0.895 | 0.734 | 0.688 | 0.469 | 0.356 | 0.962 | 0.947 | 0.902 | 0.968 | 1.23
NCI-H1651 | 1.18 | 0.952 | 1.03 | 1.02 | 1.08 | 0.938 | 0.934 | 1.03 | 1.1 | 0.968 | 1 | 1 | 0.961 | 0.901 | 0.785 | 1.01 |  | 0.912 | 0.904 | 1.15

Source: the supplement of paper PMC10307832
